We go through six compounds from patent publication US5514713A, “Amidinophenol derivatives” (Ono Pharmaceutical Co., Ltd., priority 1993, dated 1996).

Where a name gives a salt, the structure may show the parent alone.

The target in test [1] is T1, PLA2 (Sus scrofa, UniProt P00592).
T1 construct: from tissue; host or cells: hog pancreas
As to the kind of experiment: Inhibitory activity on PLA2. Format: biochemical, hog. The protocol:
A reaction solution including 50 mM tris-HCl buffer (pH7.5, 874 μl; containing 100 mM sodium chloride, 1 mM EDTA), 1M calcium chloride (6 μl), 1% bovine serum albumin (10 μl) and 2.5 mM 10PY-PC (10 μl), was prepared. To the solution were added solutions of a test compound in respective concentrations or water (50 μl), and a solution of 10 mU/ml PLA2 (derived from hog pancreas) (50 μl). The appearance of fluorescence was measured (Ex=345 nm, Em=396 nm). Percentage of the strength of fluorescence in the presence of a test compound was calculated when the strength of that in the absence thereof was regarded as 100%, and therefrom IC50 value was calculated.
(§1) In the methods hereinbefore described, 10PY-PC represents 3'-palmitoyl-2-(1-opyrenedecanoyl)-L-α-phosphatidylcholine, HEPES represents 4-(2-hydroxyethyl)-1-piperazineethanesulfonic acid, and BAPNA represents α-N-benzoyl-DL-arginine-p-nitroanilide hydrochloride.

Test [2] deals with T2, trypsin (Bos taurus, UniProt P00760).
T2 construct: from tissue; host or cells: bovine pancreas
T2 sequence (P00760 24-246): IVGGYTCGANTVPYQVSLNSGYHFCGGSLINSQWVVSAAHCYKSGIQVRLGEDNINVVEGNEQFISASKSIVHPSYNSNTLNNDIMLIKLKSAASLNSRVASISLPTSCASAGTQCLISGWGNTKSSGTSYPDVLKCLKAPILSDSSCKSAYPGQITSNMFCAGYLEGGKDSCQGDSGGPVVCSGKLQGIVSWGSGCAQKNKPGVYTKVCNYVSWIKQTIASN
As to the kind of experiment: Inhibitory activity on trypsin. It counts as biochemical. Particulars: trypsin derived from bovine pancreas; BAPNA substrate; pH 8.0; 30° C.; absorbance at 405 nm. As to the method:
(2) Inhibitory activity on trypsin
To a mixture of a 0.2 M HEPES·sodium hydroxide buffer solution (pH 8.0, 100 μl) and distilled water (640 μl), were added solutions of a test compound in respective concentrations or water (10 μl), and a solution of 80 mU/ml trypsin (derived from bovine pancreas) (50 μl) and then the mixture was preincubated for one minute at 30° C. To the solution thus obtained was added 2.5 mM BAPNA (200 μl) and the mixture was incubated at 30° C. The absorbance at 405 nm was measured. Percentage (%) of the absorbance in the presence of a test compound was calculated when the absorbance in the absence thereof was regarded as 100%, and therefrom IC50 value was calculated.
as §1

Test [3] relates to PLA2. Particulars: Japanese Journal of Clinical Medicine, 48 (1), 165-172, 1990; cited from earlier work.

T1 sequence (P00592 23-146): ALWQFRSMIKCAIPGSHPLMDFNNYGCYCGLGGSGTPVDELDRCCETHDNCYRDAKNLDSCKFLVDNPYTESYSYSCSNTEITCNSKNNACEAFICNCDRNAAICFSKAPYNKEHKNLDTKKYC

As for `CCOC(=O)C(C(=O)OCC)N(CCCOC)C(=O)/C(C)=C/c1ccc(C(=O)Oc2ccc(C(=N)N)cc2)cc1` [1(b), p-(p-Amidinophenoxycarbonyl)-α-methylcinnamic acid N-1,1-bis(ethoxycarbonyl)methyl-N-3-methoxypropylamide acetate], the IC50 in test [1] amounted to 124000 nM; in test [2], 170 nM.
As to `CCOC(=O)CN(CCCOC)C(=O)/C(C)=C/c1ccc(C(=O)Oc2ccc(C(=N)N)cc2)cc1` [Example 1(a), acetate], the half-maximal inhibitory concentration (IC50) in test [1] amounted to 106000 nM; in test [2], 253 nM.
Regarding `CCOC(=O)CCN(CCCOC)C(=O)/C(C)=C/c1ccc(C(=O)Oc2ccc(C(=N)N)cc2)cc1` [Example 1, p-(p-Amidinophenoxycarbonyl)-α-methylcinnamic acid N-2-ethoxycarbonylethyl-N-3-methoxypropylamide hydrochloride], the figures for the IC50 in test [1] and in test [2] were 107000 nM and 136 nM, respectively.
In test [2], `COCCCN(CC(=O)O)C(=O)/C(C)=C/c1ccc(C(=O)Oc2ccc(C(=N)N)cc2)cc1` [Example 3, p-(p-Amidinophenoxycarbonyl)-α-methylcinnamic acid N-carboxylmethyl-N-3-methoxypropylamide methanesulfonate] showed an IC50 of 140 nM.
On to `CN(C)C(=O)COC(=O)Cc1ccc(OC(=O)c2ccc(NC(=N)N)cc2)cc1` [camostat mesylate], for which the “inhibitory activity on PLA2 (in words)” value in test [3] is recorded as “inhibitory activity on PLA2”.
`N=C(N)Nc1ccc(C(=O)Oc2ccc3cc(C(=N)N)ccc3c2)cc1` [nafamostat mesylate]: the “inhibitory activity on PLA2 (in words)” value in test [3] is on record as “inhibitory activity on PLA2”.

A word on the IC50: it is the concentration that inhibits the measured activity by half.
